Source: ChEMBL document CHEMBL3045838, “Synthesis, antimicrobial and antioxidant activities of 2-[1-{3,5-diaryl-4,5-dihydro-1H-pyrazolenyl}]-4-(4-nitrophenyl)-[1,3]-thiazoles” (2013)
Values after ≈ are worked out from the molar mass of the structure shown.

Assays:
Format in all cases: functional
Klebsiella pneumoniae [1] = experiment: Antibacterial activity against Klebsiella pneumoniae assessed as growth inhibition by serial plate dilution method
Klebsiella pneumoniae [2] = experiment: Antibacterial activity against Klebsiella pneumoniae assessed as growth inhibition at 1.56 to 25 ug/mL
Pseudomonas aeruginosa [3] = experiment: Antibacterial activity against Pseudomonas aeruginosa ATCC 27853 assessed as growth inhibition at 1.56 to 25 ug/mL
Aspergillus fumigatus [4] = experiment: Antifungal activity against Aspergillus fumigatus NCIM 902 assessed as growth inhibition at 1.56 to 25 ug/mL
Staphylococcus aureus [5] = experiment: Antibacterial activity against Staphylococcus aureus ATCC 25923 assessed as growth inhibition by serial plate dilution method
Aspergillus flavus [6] = experiment: Antifungal activity against Aspergillus flavus NCIM 524 assessed as growth inhibition at 1.56 to 25 ug/mL
Talaromyces marneffei [7] = experiment: Antifungal activity against Talaromyces marneffei assessed as growth inhibition at 1.56 to 25 ug/mL
Staphylococcus aureus [8] = experiment: Antibacterial activity against Staphylococcus aureus ATCC 25923 assessed as growth inhibition at 1.56 to 25 ug/mL
Aspergillus flavus [9] = experiment: Antifungal activity against Aspergillus flavus NCIM 524 assessed as growth inhibition by serial plate dilution method
[10] = test system: Radical scavenging activity; experiment: Antioxidant activity assessed as inhibition of DPPH radical generation at 4000 ug/mL after 15 min by UV-Vis spectrophotometric analysis relative to control; conditions: at 4000 µg/mL
Escherichia coli [11] = experiment: Antibacterial activity against Escherichia coli ATCC 25922 assessed as growth inhibition at 1.56 to 25 ug/mL
Aspergillus fumigatus [12] = experiment: Antifungal activity against Aspergillus fumigatus NCIM 902 assessed as growth inhibition by serial plate dilution method
Pseudomonas aeruginosa [13] = experiment: Antibacterial activity against Pseudomonas aeruginosa ATCC 27853 assessed as growth inhibition by serial plate dilution method
Talaromyces marneffei [14] = experiment: Antifungal activity against Talaromyces marneffei assessed as growth inhibition by serial plate dilution method
[15] = test system: Trichophyton mentagrophytes; experiment: Antifungal activity against Trichophyton mentagrophytes assessed as growth inhibition by serial plate dilution method
Escherichia coli [16] = experiment: microbe, parasite or virus in culture; conditions: ATCC 25922
Description: Antibacterial activity against Escherichia coli ATCC 25922 assessed as growth inhibition by serial plate dilution method

[17] = test system: Trichophyton mentagrophytes; experiment: Antifungal activity against Trichophyton mentagrophytes assessed as growth inhibition at 1.56 to 25 ug/mL

Row | Compound | MIC (Klebsiella pneumoniae [1]) | diameter of the inhibition zone (DIZ) (Klebsiella pneumoniae [2]) | diameter of the inhibition zone (DIZ) (Pseudomonas aeruginosa [3]) | diameter of the inhibition zone (DIZ) (Aspergillus fumigatus [4]) | MIC (Staphylococcus aureus [5]) | diameter of the inhibition zone (DIZ) (Aspergillus flavus [6]) | diameter of the inhibition zone (DIZ) (Talaromyces marneffei [7]) | diameter of the inhibition zone (DIZ) (Staphylococcus aureus [8]) | MIC (Aspergillus flavus [9]) | inhibition [10] | diameter of the inhibition zone (DIZ) (Escherichia coli [11]) | MIC (Aspergillus fumigatus [12]) | MIC (Pseudomonas aeruginosa [13]) | MIC (Talaromyces marneffei [14]) | MIC [15] | MIC (Escherichia coli [16]) | diameter of the inhibition zone (DIZ) [17]
1 | COc1ccc(C2=NN(c3nc(-c4ccc([N+](=O)[O-])cc4)cs3)C(c3ccc(SC)cc3)C2)cc1 (centres undefined) | 25 µg/mL (≈ 49.7 µM) | < 10 mm | < 10 mm | < 10 mm | 25 µg/mL (≈ 49.7 µM) | < 10 mm | < 10 mm | < 10 mm | 25 µg/mL (≈ 49.7 µM) | 79% | < 10 mm | 25 µg/mL (≈ 49.7 µM) | 25 µg/mL (≈ 49.7 µM) | 25 µg/mL (≈ 49.7 µM) | 25 µg/mL (≈ 49.7 µM) | 25 µg/mL (≈ 49.7 µM) | < 10 mm
2 | CSc1ccc(C2CC(c3ccc(Cl)cc3)=NN2c2nc(-c3ccc([N+](=O)[O-])cc3)cs2)cc1 (centres undefined) | 6.25 µg/mL (≈ 12.3 µM) | 16 mm | 16 mm | 16 mm | 6.25 µg/mL (≈ 12.3 µM) | 16 mm | 16 mm | 16 mm | 6.25 µg/mL (≈ 12.3 µM) | 38% | 16 mm | 6.25 µg/mL (≈ 12.3 µM) | 6.25 µg/mL (≈ 12.3 µM) | 6.25 µg/mL (≈ 12.3 µM) | 6.25 µg/mL (≈ 12.3 µM) | 6.25 µg/mL (≈ 12.3 µM) | 16 mm
3 | COc1ccc(C2=NN(c3nc(-c4ccc([N+](=O)[O-])cc4)cs3)C(c3ccc(SC)cc3)C2)cc1OC (centres undefined) | 25 µg/mL (≈ 46.9 µM) | < 10 mm | < 10 mm | < 10 mm | 25 µg/mL (≈ 46.9 µM) | < 10 mm | < 10 mm | < 10 mm | 25 µg/mL (≈ 46.9 µM) | 86% | < 10 mm | 25 µg/mL (≈ 46.9 µM) | 25 µg/mL (≈ 46.9 µM) | 25 µg/mL (≈ 46.9 µM) | 25 µg/mL (≈ 46.9 µM) | 25 µg/mL (≈ 46.9 µM) | < 10 mm
4 | COc1ccc(C2=NN(c3nc(-c4ccc([N+](=O)[O-])cc4)cs3)C(c3ccc(-c4ccc(Cl)cc4[N+](=O)[O-])o3)C2)cc1OC (centres undefined) | 12.5 µg/mL (≈ 19.8 µM) | 11 mm | 11 mm | 11 mm | 12.5 µg/mL (≈ 19.8 µM) | 11 mm | 11 mm | 11 mm | 12.5 µg/mL (≈ 19.8 µM) | 82% | 11 mm | 12.5 µg/mL (≈ 19.8 µM) | 12.5 µg/mL (≈ 19.8 µM) | 12.5 µg/mL (≈ 19.8 µM) | 12.5 µg/mL (≈ 19.8 µM) | 12.5 µg/mL (≈ 19.8 µM) | 11 mm
5 | COc1ccc(C2=NN(c3nc(-c4ccc([N+](=O)[O-])cc4)cs3)C(c3ccc(-c4ccc([N+](=O)[O-])cc4C)o3)C2)cc1OC (centres undefined) | 6.25 µg/mL (≈ 10.2 µM) | 16 mm | 16 mm | 16 mm | 6.25 µg/mL (≈ 10.2 µM) | 16 mm | 16 mm | 16 mm | 6.25 µg/mL (≈ 10.2 µM) | 14% | 16 mm | 6.25 µg/mL (≈ 10.2 µM) | 6.25 µg/mL (≈ 10.2 µM) | 6.25 µg/mL (≈ 10.2 µM) | 6.25 µg/mL (≈ 10.2 µM) | 6.25 µg/mL (≈ 10.2 µM) | 16 mm
6 | COc1ccc(C2=NN(c3nc(-c4ccc([N+](=O)[O-])cc4)cs3)C(c3ccc(-c4ccc([N+](=O)[O-])cc4)o3)C2)cc1OC (centres undefined) | 6.25 µg/mL (≈ 10.5 µM) | 16 mm | 16 mm | 16 mm | 6.25 µg/mL (≈ 10.5 µM) | 16 mm | 16 mm | 16 mm | 6.25 µg/mL (≈ 10.5 µM) | 62% | 16 mm | 6.25 µg/mL (≈ 10.5 µM) | 6.25 µg/mL (≈ 10.5 µM) | 6.25 µg/mL (≈ 10.5 µM) | 6.25 µg/mL (≈ 10.5 µM) | 6.25 µg/mL (≈ 10.5 µM) | 16 mm
7 | COc1ccc(C2=NN(c3nc(-c4ccc([N+](=O)[O-])cc4)cs3)C(c3ccc(-c4ccc(Cl)cc4)o3)C2)cc1OC (centres undefined) | 6.25 µg/mL (≈ 10.6 µM) | 16 mm | 16 mm | 16 mm | 6.25 µg/mL (≈ 10.6 µM) | 16 mm | 16 mm | 16 mm | 6.25 µg/mL (≈ 10.6 µM) | 35% | 16 mm | 6.25 µg/mL (≈ 10.6 µM) | 6.25 µg/mL (≈ 10.6 µM) | 6.25 µg/mL (≈ 10.6 µM) | 6.25 µg/mL (≈ 10.6 µM) | 6.25 µg/mL (≈ 10.6 µM) | 16 mm
